Assay [1] relates to Human immunodeficiency virus 1. In words: Activity against HIV1 3B assessed by inhibition of p24 production in human lymphocytes. To be noted: Human immunodeficiency virus 1, 3B. Format: functional, organism-based.
Assay [2] concerns Human immunodeficiency virus 1. Description: Antiviral activity against HIV1 in MT4 cell line. Format: functional, organism-based. The following applies: Human immunodeficiency virus 1, MT4; for pEC50: read-out: EC50; for EC50: read-out: Log EC50 (converted).
The test system of assay [3] is Human immunodeficiency virus 1. In words: Antiviral activity against HIV1 in C8166 cell line. Format: functional, organism-based. The following applies: Human immunodeficiency virus 1, C8166.
Assay [4] relates to Human immunodeficiency virus. In words: Activity against HIV-AB1 assessed by inhibition of p24 production in human lymphocytes. Format: functional, organism-based. To be noted: Human immunodeficiency virus 1.
Assay [5] relates to C8166. Description: Antiproliferative activity against C8166 cell line by MTT assay. Format: functional. To be noted: Homo sapiens, read-out: TC50 (the source's name).
Assay [6] has as its system Macrophage. In words: Cytotoxicity against human macrophages. Format: functional. To be noted: read-out: TC50 (the source's name).
In assay [7] the test system is Lymphocyte. Description: Selectivity index, TC50 for human lymphocytes/EC50 for HIV-AB1. Format: functional.
For assay [8], the system named is Human immunodeficiency virus 1. In words: Antiviral activity against HIV1 K103N-Y181C mutant in MT4 cell line. Format: functional, organism-based. The following applies: Human immunodeficiency virus 1, MT4.
The subject of assay [9] is Human immunodeficiency virus 1. Description: Antiviral activity against HIV1 Y181C mutant in MT4 cell line. In kind it is functional, organism-based. The following applies: Human immunodeficiency virus 1, MT4.
Assay [10] deals with Human immunodeficiency virus. Description: Activity against HIV-112 assessed by inhibition of p24 production in human lymphocytes. Format: functional, organism-based. To be noted: Human immunodeficiency virus 1.
Assay [11] concerns Human immunodeficiency virus 1. Description: Antiviral activity against HIV1 3B in MT4 cell line. Format: functional, organism-based. To be noted: Human immunodeficiency virus 1, 3B.
Assay [12] relates to Lymphocyte. Description: Selectivity index, TC50 for human lymphocytes/EC50 for HIV-112. In kind it is functional.
Assay [13] has as its system Macrophage. Description: Selectivity index, TC50 for human macrophages/EC50 for HIV1 […]. Format: functional.
Assay [14] concerns Lymphocyte. Description: Selectivity index, TC50 for human lymphocytes/EC50 for HIV1 3B. In kind it is functional.
For assay [15], the system named is Lymphocyte. Description: Cytotoxicity against human lymphocytes. Format: functional. To be noted: read-out: TC50 (the source's name).
In assay [16] the test system is MT4. In words: Cytotoxicity against MT4 cell line by MTT assay. In kind it is functional. To be noted: Homo sapiens, read-out: TC50 (the source's name). For orientation: Formazan colour is commonly taken as a measure of viable cells.
Assay [17] has as its system C8166. Description: Selectivity index, TC50 for C8166 cell line/EC50 for HIV1. Format: functional.
Assay [18] has as its system MT4. In words: Selectivity index, TC50 for MT4 cell line/EC50 for HIV1. In kind it is functional.
Assay [19] relates to Human immunodeficiency virus 1. In words: Antiviral activity against HIV1 […] in human macrophages. Format: functional, organism-based.

From ChEMBL document CHEMBL1147813, “Design, molecular modeling, synthesis, and anti-HIV-1 activity of new indolyl aryl sulfones. Novel derivatives of the indole-2-carboxamide” (J Med Chem, 2006) come the findings set out here.

pEC50: −log10 of the molar value.

The term pEC50 denotes the negative decadic logarithm of the EC50, by convention in mol/L. A word on the EC50: it is the concentration needed to bring the measured effect to its halfway point. For the compound `CCOC(=O)NNC(=O)c1[nH]c2ccc(Cl)cc2c1S(=O)(=O)c1cc(C)cc(C)c1`, the pEC50 in assay [1] was 7.70; in [2], 7.70; in assay [3], 7.30; in [4], 7.70; in assay [8], 5.04; in assay [9], 7.40. The pEC50 was 7.52 in [10], 7.70 in [11] and 8.22 in assay [19]. Moreover, the EC50 in [2] was 20 nM. Besides, the CC50 in the assay with C8166 [5] is over 100000 nM; in the assay with Macrophage [6], over 100000 nM; with Lymphocyte [15], over 100000 nM; in the assay on MT4 [16] it was 100000 nM. The Selectivity index is recorded as over 5000 with Lymphocyte [7]; over 3333 in the assay on Lymphocyte [12]; over 16666 in the assay with Macrophage [13]; over 5000 in the assay on Lymphocyte [14]; over 2000 in the assay on C8166 [17]; 5000 in the assay with MT4 [18].
For `Cc1cc(C)cc(S(=O)(=O)c2c(C(=O)NN3CCOC3=O)[nH]c3ccc(Cl)cc23)c1`, the pEC50 was 8.00 in assay [1]; 9.05 in assay [2]; 8.52 in assay [3]; 7.70 in assay [4]; 6.05 in assay [8]; 8.00 in assay [9]. For the same compound, the results for the pEC50 in assay [10] and in [11] were 7.52 and 9.00, respectively. The concentration giving a half-maximal response (EC50) in assay [2] was 0.899 nM. Also, the CC50 with C8166 [5] was over 100000 nM; with Macrophage [6], over 100000 nM; in the assay on Lymphocyte [15], over 100000 nM; in the assay with MT4 [16] it was 100000 nM. In addition, the Selectivity index is over 5000 in the assay on Lymphocyte [7]; over 3333 in the assay with Lymphocyte [12]; over 50000 in the assay with Macrophage [13]; over 10000 with Lymphocyte [14]; over 33333 in the assay with C8166 [17]; 111111 in the assay with MT4 [18].
As to `Cc1cc(C)cc(S(=O)(=O)c2c(C(=O)NNC3CCCCC3)[nH]c3ccc(Cl)cc23)c1`, the negative logarithm of the EC50 (pEC50) is 6.10 in [1]; 7.30 in [2]; 7.10 in [3]; 6.05 in assay [4]; under 4.70 in [8]; 5.92 in assay [9]. Moreover, the pEC50 in assay [10] was 6.00; in assay [11], 7.00; in assay [19] it was 6.70. Also, in assay [2], the concentration for a half-maximal effect (EC50) was 50 nM. Also, the CC50 with C8166 [5], in the assay with Macrophage [6], with Lymphocyte [15] and in the assay on MT4 [16] was over 100000 nM in each case. The Selectivity index with Lymphocyte [7] is listed as over 111; with Lymphocyte [12], over 100; with Macrophage [13], over 500; with Lymphocyte [14], over 125; in the assay on C8166 [17], over 1250; in the assay with MT4 [18], over 2000.
For `Cc1cc(C)cc(S(=O)(=O)c2c(C(=O)NNC(=O)NN)[nH]c3ccc(Cl)cc23)c1`, the pEC50 was 7.52 in assay [1]; 8.00 in assay [2]; 8.10 in assay [3]; 7.40 in [4]; 5.24 in assay [8]; 7.70 in assay [9]. In addition, the pEC50 in assay [10] was 7.30; in assay [11] it was 7.40; in assay [19] it was 8.05. In addition, the 50% effective concentration (EC50) in [2] was 10 nM. Further, the CC50 in the assay on C8166 [5], in the assay on Macrophage [6], in the assay on Lymphocyte [15] and in the assay with MT4 [16] was over 100000 nM throughout. In addition, the Selectivity index with Lymphocyte [7] is over 2500; in the assay with Lymphocyte [12], over 2000; in the assay on Macrophage [13], over 11111; in the assay on Lymphocyte [14], over 3333; in the assay on C8166 [17], over 12500; in the assay on MT4 [18], over 10000.
With `CC(=O)NNC(=O)c1[nH]c2ccc(Cl)cc2c1S(=O)(=O)c1cc(C)cc(C)c1`, the pEC50 in assay [1] is 8.00; in assay [2], 8.30; in assay [3] it was 8.15; in [4], 8.00; in assay [8], under 4.70; in [9], 7.70. Besides, the pEC50 in assay [10] was 8.10; in [11], 8.30; in assay [19], 8.10. For the same compound, the EC50 in assay [2] is 5 nM. Further, the CC50 in the assay with C8166 [5], in the assay on Macrophage [6], in the assay with Lymphocyte [15] and in the assay with MT4 [16] was over 100000 nM each time. For the same compound, the Selectivity index with Lymphocyte [7] was over 10000; in the assay with Lymphocyte [12], over 12500; with Macrophage [13], over 12500; in the assay with Lymphocyte [14] it was over 10000; in the assay with C8166 [17] it was over 14285; with MT4 [18], over 20000.
For the compound `Cc1cc(C)cc(S(=O)(=O)c2c(C(=O)NNC(C)C)[nH]c3ccc(Cl)cc23)c1`, the negative-log EC50 (pEC50) was 8.10 in assay [1]; 9.15 in assay [2]; 8.52 in assay [3]; 8.10 in [4]; 5.07 in [8]; 7.40 in [9]. In addition, the figures for the negative-log EC50 (pEC50) in [10], in assay [11] and in assay [19] were 8.22, 9.15 and 8.30, respectively. Besides, the 50% effective concentration (EC50) in [2] is 0.7 nM. Further, the CC50 in the assay with C8166 [5], in the assay with Macrophage [6], with Lymphocyte [15] and in the assay with MT4 [16] was over 100000 nM in each case. In addition, the Selectivity index in the assay on Lymphocyte [7] is given as over 12500; with Lymphocyte [12] it was over 16666; in the assay on Macrophage [13], over 20000; with Lymphocyte [14], over 12500; in the assay with C8166 [17], over 33333; with MT4 [18], over 142857.
In the case of `O=C(NN1CCOC1=O)c1[nH]c2ccc(Cl)cc2c1S(=O)(=O)c1ccccc1`, the pEC50 in assay [1] was 7.00; in [2] it was 7.82; in assay [3], 7.70; in assay [4], 6.30; in [8], under 4.70; in assay [9], 6.52. Also, the figures for the pEC50 in [10], in assay [11] and in [19] were 6.40, 7.82 and 7.22, respectively. In addition, the concentration for a half-maximal effect (EC50) in assay [2] is 15 nM. For the same compound, the CC50 in the assay with C8166 [5], in the assay with Macrophage [6], in the assay on Lymphocyte [15] and in the assay on MT4 [16] was over 100000 nM in each case. Also, the Selectivity index with Lymphocyte [7] is given as over 200; with Lymphocyte [12] it was over 250; with Macrophage [13], over 1666; in the assay with Lymphocyte [14], over 1000; in the assay with C8166 [17], over 5000; in the assay with MT4 [18] it was over 6666.
In the case of `Cc1ccnc2c1NC(=O)c1cccnc1N2C1CC1` [NEVIRAPINE], the negative-log EC50 (pEC50) in [1] is 7.05; in [4], under 4.70; in [10], under 4.70; in [11] it was 6.43. Besides, in the assay on Lymphocyte [14], the Selectivity index was over 1111. Moreover, the CC50 in the assay with Lymphocyte [15] is over 100000 nM.
